Measurements: patent publication US4808711A, “Cephalosporin derivatives” (Sankei Pharmaceutical Co., Ltd., priority 1985, dated 1989)
Converted amounts (≈) assume the structure as drawn. Where two headings read alike, the source gives them in different places.

How the values were obtained:
Type in all cases: cell-based
S. typhimurium IFO 12529 = assay: MIC, S. typhimurium IFO 12529
Method: (§1) The minimum inhibition concentrations (MIC) of the compounds obtained by the present invention were measured according to the standard method of Japanese Chemotherapy Association.

P. maltophilia ATCC13637 = assay: MIC, P. maltophilia ATCC13637; conditions: Stenotrophomonas maltophilia
Method: as §1

S. aureus Smith = assay: MIC, S. aureus Smith
Method: as §1

S. flexneri Y NCTC 9730 = assay: MIC, S. flexneri Y NCTC 9730
Method: as §1

S. boyadii CDC 2064-59 = assay: MIC, S. boyadii CDC 2064-59
Method: as §1

S. paratyphi B = assay: MIC, S. paratyphi B
Method: as §1

E. coli ATCC25922 = assay: MIC, E. coli ATCC25922
Method: as §1

S. aureus ATCC25923 = assay: MIC, S. aureus ATCC25923; conditions: Staphylococcus aureus; S. aureus ATCC25923; read-out: MIC
Method: as §1

P. fluorescens ATCC13525 = assay: MIC, P. fluorescens ATCC13525
Method: as §1

P. aeruginosa ATCC9721 = assay: MIC, P. aeruginosa ATCC9721; conditions: Pseudomonas aeruginosa; P. aeruginosa ATCC9721; read-out: MIC
Method: as §1

S. typhimurium ATCC13311 = assay: MIC, S. typhimurium ATCC13311
Method: as §1

B. subtilis ATCC6633 = assay: MIC, B. subtilis ATCC6633; conditions: B. subtilis ATCC6633
Method: as §1

C. freundii IFO12681 = assay: MIC, C. freundii IFO12681
Method: as §1

P. vulgaris ATCC6398 = assay: MIC, P. vulgaris ATCC6398
Method: as §1

S. aureus TASAKI = assay: MIC, S. aureus TASAKI; conditions: Staphylococcus aureus
Method: as §1

P. putida ATCC12633 = assay: MIC, P. putida ATCC12633; conditions: Pseudomonas putida
Method: as §1

P. cepacia ATCC25416 = assay: MIC, P. cepacia ATCC25416
Method: as §1

S. marcescens IFO12648 = assay: MIC, S. marcescens IFO12648
Method: as §1

[1] = system: S. flexneri 2a CDC 4807-62; assay: MIC, S. flexneri 2a CDC 4807-62
Method: as §1

S. anatum 677-69 = assay: MIC, S. anatum 677-69
Method: as §1

P. rettgeri ATCC14505 = assay: MIC, P. rettgeri ATCC14505
Method: as §1

S. newport 563 = assay: MIC, S. newport 563
Method: as §1

S. paratyphi C 33-76 = assay: MIC, S. paratyphi C 33-76
Method: as §1

S. paratyphi A 144-12-93 = assay: MIC, S. paratyphi A 144-12-93
Method: as §1

S. sonnei SH72-415 = assay: MIC, S. sonnei SH72-415
Method: as §1

K. pneumoniae ATCC27736 = assay: MIC, K. pneumoniae ATCC27736
Method: as §1

E. cloacae ATCC13047 = assay: MIC, E. cloacae ATCC13047; conditions: Enterobacter cloacae
Method: as §1

S. faecalis IFO3826 = assay: MIC, S. faecalis IFO3826
Method: as §1

S. aureus 209P JC-1 = assay: MIC, S. aureus 209P JC-1; conditions: S. aureus 209P JC-1
Method: as §1

P. vulgaris ATCC6380 = assay: MIC, P. vulgaris ATCC6380
Method: as §1

S. dysenteriae 4379-60 = assay: MIC, S. dysenteriae 4379-60
Method: as §1

S. epidermidis ATCC14990 = assay: MIC, S. epidermidis ATCC14990
Method: as §1

E. coli NIHJ JC-2 = assay: MIC, E. coli NIHJ JC-2
Method: as §1

S. typhi 1099-77 = assay: MIC, S. typhi 1099-77
Method: as §1

P. mirabilis IFO3849 = assay: MIC, P. mirabilis IFO3849
Method: as §1

[2] = Salmonella enterica, read-out: MIC
[3] = Staphylococcus aureus, read-out: MIC
[4] = Shigella flexneri, NCTC9730, read-out: MIC
[5] = Escherichia coli, read-out: MIC
[6] = Bacillus subtilis, read-out: MIC
[7] = Citrobacter freundii, read-out: MIC
[8] = Proteus vulgaris, read-out: MIC
[9] = Burkholderia cepacia, read-out: MIC
[10] = Serratia marcescens, read-out: MIC
[11] = Shigella flexneri, read-out: MIC
[12] = Salmonella enterica, 67769, read-out: MIC
[13] = Providencia rettgeri, read-out: MIC
[14] = Shigella sonnei, SH72415, read-out: MIC
[15] = Klebsiella pneumoniae, read-out: MIC
[16] = Enterococcus faecalis, read-out: MIC
[17] = Staphylococcus epidermidis, read-out: MIC
[18] = Escherichia coli, NIHJJC2, read-out: MIC
[19] = Proteus mirabilis, read-out: MIC

CO/N=C(\C(=O)N[C@@H]1C(=O)N2C(C(=O)O)=C(COC(C)=O)CS[C@H]12)c1csc(N)n1 [CTX, cephotaxim]
MIC (S. typhimurium IFO 12529; [2]): 0.2 µg/mL (≈ 0.439 µM) | MIC (P. maltophilia ATCC13637): 50 µg/mL (≈ 110 µM) | MIC (S. aureus Smith; [3]): 3.13 µg/mL (≈ 6.87 µM) | MIC (S. flexneri Y NCTC 9730; [4]): 0.05 µg/mL (≈ 0.11 µM) | MIC (S. boyadii CDC 2064-59): 0.39 µg/mL (≈ 0.856 µM) | MIC (S. paratyphi B; Salmonella enterica, PARATYPHI): 0.1 µg/mL (≈ 0.22 µM) | MIC (E. coli ATCC25922; [5]): 0.1 µg/mL (≈ 0.22 µM) | MIC (S. aureus ATCC25923): 0.78 µg/mL (≈ 1.71 µM) | MIC (P. fluorescens ATCC13525; Pseudomonas fluorescens, read-out: MIC): 25 µg/mL (≈ 54.9 µM) | MIC (P. aeruginosa ATCC9721): 3.13 µg/mL (≈ 6.87 µM) | MIC (S. typhimurium ATCC13311; [2]): 0.05 µg/mL (≈ 0.11 µM) | MIC (B. subtilis ATCC6633; [6]): 0.39 µg/mL (≈ 0.856 µM) | MIC (C. freundii IFO12681; [7]): 0.1 µg/mL (≈ 0.22 µM) | MIC (P. vulgaris ATCC6398; [8]): ≤ 0.006 µg/mL | MIC (S. aureus TASAKI): 1.56 µg/mL (≈ 3.43 µM) | MIC (P. putida ATCC12633): 50 µg/mL (≈ 110 µM) | MIC (P. cepacia ATCC25416; [9]): 0.78 µg/mL (≈ 1.71 µM) | MIC (S. marcescens IFO12648; [10]): 0.2 µg/mL (≈ 0.439 µM) | MIC [1, 11]: 0.025 µg/mL (≈ 0.0549 µM) | MIC (S. anatum 677-69; [12]): 0.1 µg/mL (≈ 0.22 µM) | MIC (P. rettgeri ATCC14505; [13]): 0.1 µg/mL (≈ 0.22 µM) | MIC (S. newport 563; [2]): 0.1 µg/mL (≈ 0.22 µM) | MIC (S. paratyphi C 33-76; Salmonella enterica, PARATYPHI): ≤ 0.006 µg/mL | MIC (S. paratyphi A 144-12-93; Salmonella enterica, PARATYPHI): 0.2 µg/mL (≈ 0.439 µM) | MIC (S. sonnei SH72-415; [14]): 0.05 µg/mL (≈ 0.11 µM) | MIC (K. pneumoniae ATCC27736; [15]): 0.1 µg/mL (≈ 0.22 µM) | MIC (E. cloacae ATCC13047): 3.13 µg/mL (≈ 6.87 µM) | MIC (S. faecalis IFO3826; [16]): > 100 µg/mL | MIC (S. aureus 209P JC-1; [3]): 0.39 µg/mL (≈ 0.856 µM) | MIC (P. vulgaris ATCC6380; [8]): 0.05 µg/mL (≈ 0.11 µM) | MIC (S. dysenteriae 4379-60; Shigella dysenteriae, 437960): 0.012 µg/mL (≈ 0.0263 µM) | MIC (S. epidermidis ATCC14990; [17]): 0.78 µg/mL (≈ 1.71 µM) | MIC (E. coli NIHJ JC-2; [18]): 0.1 µg/mL (≈ 0.22 µM) | MIC (S. typhi 1099-77; Salmonella enterica, S. typhi 1099-77, read-out: MIC): 0.1 µg/mL (≈ 0.22 µM) | MIC (P. mirabilis IFO3849; [19]): 0.05 µg/mL (≈ 0.11 µM)

CN(C)CCn1nnnc1SCC1=C(C(=O)O)N2C(=O)[C@@H](NC(=O)Cc3csc(N)n3)[C@H]2SC1 [CTM, cephothiam]
MIC (S. typhimurium IFO 12529; [2]): 0.2 µg/mL (≈ 0.38 µM) | MIC (P. maltophilia ATCC13637): > 100 µg/mL | MIC (S. aureus Smith; [3]): 0.39 µg/mL (≈ 0.742 µM) | MIC (S. flexneri Y NCTC 9730; [4]): 0.78 µg/mL (≈ 1.48 µM) | MIC (S. boyadii CDC 2064-59): 0.39 µg/mL (≈ 0.742 µM) | MIC (S. paratyphi B; Salmonella enterica, PARATYPHI): 0.2 µg/mL (≈ 0.38 µM) | MIC (E. coli ATCC25922; [5]): 0.2 µg/mL (≈ 0.38 µM) | MIC (S. aureus ATCC25923): 0.39 µg/mL (≈ 0.742 µM) | MIC (P. aeruginosa ATCC9721): > 100 µg/mL | MIC (S. typhimurium ATCC13311; [2]): 0.1 µg/mL (≈ 0.19 µM) | MIC (B. subtilis ATCC6633; [6]): 0.39 µg/mL (≈ 0.742 µM) | MIC (C. freundii IFO12681; [7]): 3.13 µg/mL (≈ 5.95 µM) | MIC (P. vulgaris ATCC6398; [8]): > 100 µg/mL | MIC (S. aureus TASAKI; S. aureus TASAKI, standard method of Japanese Chemotherapy Association, read-out: MIC): 0.39 µg/mL (≈ 0.742 µM) | MIC (P. putida ATCC12633): > 100 µg/mL | MIC (P. cepacia ATCC25416; [9]): 0.39 µg/mL (≈ 0.742 µM) | MIC (S. marcescens IFO12648; [10]): 6.25 µg/mL (≈ 11.9 µM) | MIC [1, 11]: 0.1 µg/mL (≈ 0.19 µM) | MIC (S. anatum 677-69; [12]): 0.2 µg/mL (≈ 0.38 µM) | MIC (P. rettgeri ATCC14505; [13]): 3.13 µg/mL (≈ 5.95 µM) | MIC (S. newport 563; [2]): 0.39 µg/mL (≈ 0.742 µM) | MIC (S. paratyphi C 33-76; Salmonella enterica, PARATYPHI): 0.05 µg/mL (≈ 0.0951 µM) | MIC (S. paratyphi A 144-12-93; Salmonella enterica, PARATYPHI): 0.39 µg/mL (≈ 0.742 µM) | MIC (S. sonnei SH72-415; [14]): 0.2 µg/mL (≈ 0.38 µM) | MIC (K. pneumoniae ATCC27736; [15]): 0.1 µg/mL (≈ 0.19 µM) | MIC (E. cloacae ATCC13047): 50 µg/mL (≈ 95.1 µM) | MIC (S. faecalis IFO3826; [16]): > 100 µg/mL | MIC (S. aureus 209P JC-1; [3]): 0.2 µg/mL (≈ 0.38 µM) | MIC (P. vulgaris ATCC6380; [8]): > 100 µg/mL | MIC (S. dysenteriae 4379-60; Shigella dysenteriae, 437960): 0.05 µg/mL (≈ 0.0951 µM) | MIC (S. epidermidis ATCC14990; [17]): 0.39 µg/mL (≈ 0.742 µM) | MIC (E. coli NIHJ JC-2; [18]): 0.2 µg/mL (≈ 0.38 µM) | MIC (S. typhi 1099-77; Salmonella enterica, TYPHI): 0.1 µg/mL (≈ 0.19 µM) | MIC (P. mirabilis IFO3849; [19]): 0.78 µg/mL (≈ 1.48 µM)

cephazoline [CAZ]
MIC (S. typhimurium IFO 12529): 0.78 µg/mL | MIC (S. aureus Smith): 6.25 µg/mL | MIC (S. flexneri Y NCTC 9730): 0.39 µg/mL | MIC (S. paratyphi B; S. paratyphi B): 0.78 µg/mL | MIC (E. coli ATCC25922): 0.39 µg/mL | MIC (P. fluorescens ATCC13525): 3.13 µg/mL | MIC (S. typhimurium ATCC13311): 0.39 µg/mL | MIC (B. subtilis ATCC6633): 6.25 µg/mL | MIC (C. freundii IFO12681): 0.39 µg/mL | MIC (P. vulgaris ATCC6398): 0.1 µg/mL | MIC (P. cepacia ATCC25416): 6.25 µg/mL | MIC (S. marcescens IFO12648): 0.39 µg/mL | MIC [1]: 0.2 µg/mL | MIC (S. anatum 677-69): 0.78 µg/mL | MIC (P. rettgeri ATCC14505): 0.39 µg/mL | MIC (S. newport 563): 0.78 µg/mL | MIC (S. paratyphi C 33-76; S. paratyphi C 33-76): 0.1 µg/mL | MIC (S. paratyphi A 144-12-93; S. paratyphi A 144-12-93): 1.56 µg/mL | MIC (S. sonnei SH72-415): 0.39 µg/mL | MIC (K. pneumoniae ATCC27736): 0.78 µg/mL | MIC (S. faecalis IFO3826): > 100 µg/mL | MIC (S. aureus 209P JC-1): 0.78 µg/mL | MIC (P. vulgaris ATCC6380): 0.2 µg/mL | MIC (S. dysenteriae 4379-60; S. dysenteriae 4379-60): 0.2 µg/mL | MIC (S. epidermidis ATCC14990): 6.25 µg/mL | MIC (E. coli NIHJ JC-2): 0.78 µg/mL | MIC (S. typhi 1099-77; S. typhi 1099-77): 0.39 µg/mL | MIC (P. mirabilis IFO3849): 0.2 µg/mL
